One test has as its target T1, human recombinant HDAC1 (Homo sapiens, UniProt Q13547).
T1 construct: purchased Enzo Life Sciences, Inc. BML-SE456
The test can be described thus: HDAC enzyme activity inhibition assay (HDAC Fluorimetric Drug Discovery Kit), HDAC1. The class given is biochemical. The conditions noted are these: human recombinant HDAC1, Fluor de Lys-SIRT1 substrate, 30° C. 60 minutes. In short, it runs like this:
(§1)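 Recombinant human HDAC1 or HDAC6 (0.3 μg) reacted with 10 μM Fluor de Lys-SIRT1 substrate at 30 °C for 60 min. Developer added for 30 min, then fluorescence read at Ex 360/Em 460.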

The next test deals with T2, human recombinant HDAC6 (Homo sapiens, UniProt Q9UBN7).
T2 construct: purchased Calbiochem Inc. 382180
T2 sequence (Q9UBN7 1-1215): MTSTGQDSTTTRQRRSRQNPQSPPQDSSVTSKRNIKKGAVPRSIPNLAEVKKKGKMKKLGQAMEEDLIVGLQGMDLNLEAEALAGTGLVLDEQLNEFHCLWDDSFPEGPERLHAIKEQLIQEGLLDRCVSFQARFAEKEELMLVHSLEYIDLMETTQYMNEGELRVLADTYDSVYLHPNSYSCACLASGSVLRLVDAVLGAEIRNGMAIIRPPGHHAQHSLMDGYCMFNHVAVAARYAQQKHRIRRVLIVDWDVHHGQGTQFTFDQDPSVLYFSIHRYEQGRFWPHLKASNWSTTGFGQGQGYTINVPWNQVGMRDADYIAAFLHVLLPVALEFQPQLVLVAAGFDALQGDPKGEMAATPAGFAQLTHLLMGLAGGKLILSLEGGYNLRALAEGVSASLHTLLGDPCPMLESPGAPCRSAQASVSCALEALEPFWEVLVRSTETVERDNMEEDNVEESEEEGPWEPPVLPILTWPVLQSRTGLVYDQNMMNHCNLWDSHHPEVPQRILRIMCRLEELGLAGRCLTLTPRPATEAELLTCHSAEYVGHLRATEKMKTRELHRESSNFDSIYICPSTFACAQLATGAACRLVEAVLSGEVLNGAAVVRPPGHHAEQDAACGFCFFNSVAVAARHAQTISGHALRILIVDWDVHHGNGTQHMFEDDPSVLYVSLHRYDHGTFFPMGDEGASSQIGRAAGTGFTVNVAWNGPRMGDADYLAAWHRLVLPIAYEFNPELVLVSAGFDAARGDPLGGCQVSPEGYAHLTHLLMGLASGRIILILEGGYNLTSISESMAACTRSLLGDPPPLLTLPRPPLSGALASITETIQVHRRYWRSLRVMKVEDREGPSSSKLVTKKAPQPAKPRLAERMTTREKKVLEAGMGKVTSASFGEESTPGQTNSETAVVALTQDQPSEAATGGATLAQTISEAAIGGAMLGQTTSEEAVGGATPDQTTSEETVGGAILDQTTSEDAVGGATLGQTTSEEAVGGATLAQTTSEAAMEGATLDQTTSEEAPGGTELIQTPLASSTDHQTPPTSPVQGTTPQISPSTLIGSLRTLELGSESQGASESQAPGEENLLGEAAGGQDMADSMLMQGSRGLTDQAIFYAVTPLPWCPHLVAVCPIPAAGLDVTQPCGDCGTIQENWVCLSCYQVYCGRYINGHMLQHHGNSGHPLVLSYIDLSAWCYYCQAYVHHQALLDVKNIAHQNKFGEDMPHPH
The test can be described thus: HDAC enzyme activity inhibition assay (HDAC Fluorimetric Drug Discovery Kit), HDAC6. The conditions noted are these: for HDAC6 selectivity (fold): HDAC1 vs HDAC6; for IC50: human recombinant HDAC6, same protocol as HDAC1. The class given is biochemical. In short, it runs like this: as §1

SMILES strings stand for the structures.

This is an account of results in patent publication US20230278995A1, “1,3,4-OXADIAZOLE DERIVATIVE COMPOUNDS AS HISTONE DEACETYLASE 6 INHIBITOR, AND THE PHARMACEUTICAL COMPOSITION COMPRISING THE SAME” (CHONG KUN DANG PHARMACEUTICAL CORP., priority 2020, published 2023).

T1 sequence (Q13547 whole entry): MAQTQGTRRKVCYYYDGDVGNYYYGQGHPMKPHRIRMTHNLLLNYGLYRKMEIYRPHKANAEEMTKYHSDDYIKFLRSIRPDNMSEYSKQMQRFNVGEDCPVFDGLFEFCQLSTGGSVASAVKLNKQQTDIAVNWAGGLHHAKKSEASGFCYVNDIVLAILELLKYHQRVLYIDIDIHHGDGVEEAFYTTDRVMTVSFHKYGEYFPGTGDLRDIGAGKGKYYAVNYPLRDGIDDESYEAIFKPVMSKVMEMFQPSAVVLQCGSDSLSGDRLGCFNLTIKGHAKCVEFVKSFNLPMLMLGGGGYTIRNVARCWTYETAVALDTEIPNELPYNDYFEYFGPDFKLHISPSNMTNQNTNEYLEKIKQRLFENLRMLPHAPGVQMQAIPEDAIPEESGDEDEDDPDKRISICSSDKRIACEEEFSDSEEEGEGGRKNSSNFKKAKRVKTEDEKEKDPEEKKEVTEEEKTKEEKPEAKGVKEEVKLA

As to `CC(C)N1CC(F)(C(=O)N(Cc2ccc(-c3nnc(C(F)F)o3)cc2F)c2ccccc2)C1` [Compound 3431, N-(4-(5-(difluoromethyl)-1,3,4-oxadiazol-2-yl)-2-fluorobenzyl)-3-fluoro-1-isopropyl-N-phenylazetidine-3-carboxamide], on human recombinant HDAC1, the IC50 (usually the point on the concentration scale where inhibition reaches its midpoint) was greater than 50000 nM. In addition, on human recombinant HDAC6, the “HDAC6 selectivity (fold)” value was 544 fold and the IC50 came to 91.8 nM.
For the compound `CC(=O)N1CC(F)(C(=O)N(Cc2ccc(-c3nnc(C(F)F)o3)cc2F)c2ccccc2)C1` [Compound 3432, 1-acetyl-N-(4-(5-(difluoromethyl)-1,3,4-oxadiazol-2-yl)-2-fluorobenzyl)-3-fluoro-N-phenylazetidine-3-carboxamide], the IC50 at human recombinant HDAC1 came out at 29100 nM; on human recombinant HDAC6 it was 79.5 nM. Further, the “HDAC6 selectivity (fold)” value at human recombinant HDAC6 was 366 fold.
In the case of `CCC(=O)N1CC(F)(C(=O)N(Cc2ccc(-c3nnc(C(F)F)o3)cc2F)c2ccccc2)C1` [Compound 3433, N-(4-(5-(difluoromethyl)-1,3,4-oxadiazol-2-yl)-2-fluorobenzyl)-3-fluoro-N-phenyl-1-propionylazetidine-3-carboxamide], the IC50 at human recombinant HDAC1 came out at 38500 nM. On human recombinant HDAC6, the “HDAC6 selectivity (fold)” value is reported as 448 fold and the IC50 was 85.9 nM.
For `CC(C)C(=O)N1CC(F)(C(=O)N(Cc2ccc(-c3nnc(C(F)F)o3)cc2F)c2ccccc2)C1` [Compound 3434, N-(4-(5-(difluoromethyl)-1,3,4-oxadiazol-2-yl)-2-fluorobenzyl)-3-fluoro-1-isobutyryl N-phenylazetidine-3-carboxamide], on human recombinant HDAC1, the IC50 was greater than 50000 nM. Besides, on human recombinant HDAC6, the “HDAC6 selectivity (fold)” value amounted to 441 fold and the IC50 came out at 113 nM.
On to `O=C(N1CC(F)(C(=O)N(Cc2ccc(-c3nnc(C(F)F)o3)cc2F)c2ccccc2)C1)C(F)(F)F` [Compound 3435, N-(4-(5-(difluoromethyl)-1,3,4-oxadiazol-2-yl)-2-fluorobenzyl)-3-fluoro-N-phenyl-1-(2,2,2-trifluoroacetyl)azetidine-3-carboxamide], for which the IC50 on human recombinant HDAC1 was greater than 50000 nM; at human recombinant HDAC6, 154 nM. The “HDAC6 selectivity (fold)” value on human recombinant HDAC6 was 325 fold.
`CS(=O)(=O)N1CC(F)(C(=O)N(Cc2ccc(-c3nnc(C(F)F)o3)cc2F)c2ccccc2)C1` [Compound 3436, N-(4-(5-(difluoromethyl)-1,3,4-oxadiazol-2-yl)-2-fluorobenzyl)-3-fluoro-1-(methylsulfonyl)-N-phenylazetidine-3-carboxamide]: the values for the IC50 on human recombinant HDAC1 and at human recombinant HDAC6 were greater than 50000 nM and 132 nM, respectively. In addition, the “HDAC6 selectivity (fold)” value on human recombinant HDAC6 came to 378 fold.
Take `CC(C)N1CCC(F)(C(=O)N(Cc2ccc(-c3nnc(C(F)F)o3)cc2F)c2ccccc2)CC1` [Compound 3437, N-(4-(5-(difluoromethyl)-1,3,4-oxadiazol-2-yl)-2-fluorobenzyl)-4-fluoro-1-isopropyl-N-phenylpiperidine-4-carboxamide]: the IC50 on human recombinant HDAC1 is greater than 50000 nM. On human recombinant HDAC6, the “HDAC6 selectivity (fold)” value turned out to be 226 fold and the IC50 worked out at 221 nM.
`CC(=O)N1CCC(F)(C(=O)N(Cc2ccc(-c3nnc(C(F)F)o3)cc2F)c2ccccc2)CC1` [Compound 3438, 1-acetyl-N-(4-(5-(difluoromethyl)-1,3,4-oxadiazol-2-yl)-2-fluorobenzyl)-4-fluoro-N-phenylpiperidine-4-carboxamide]: the IC50 at human recombinant HDAC1 is greater than 50000 nM; on human recombinant HDAC6 it was 166 nM. Also, at human recombinant HDAC6, the “HDAC6 selectivity (fold)” value turned out to be 302 fold.
On to `CCC(=O)N1CCC(F)(C(=O)N(Cc2ccc(-c3nnc(C(F)F)o3)cc2F)c2ccccc2)CC1` [Compound 3439, N-(4-(5-(difluoromethyl)-1,3,4-oxadiazol-2-yl)-2-fluorobenzyl)-4-fluoro-N-phenyl-1-propionylpiperidine-4-carboxamide], for which the IC50 on human recombinant HDAC1 was greater than 50000 nM. For the same compound, at human recombinant HDAC6, the “HDAC6 selectivity (fold)” value is 238 fold and the IC50 turned out to be 210 nM.
